Values after ≈ are worked out from the molar mass of the structure shown.
Tests used:
[1] = Solubility of olaparib at 60° C. in solvents and anti-solvents; type: physicochemical
Protocol: (§1) “Solvent” refers to a liquid substance capable of dissolving olaparib at a concentration of at least about 2.5% (w/w) at 60° C.
In the Tables above, examples of good solvents include, but are not limited to, an alcohol (e.g., methanol or ethanol), acetic acid, dimethylacetamide, dimethyl sulfoxide and pyridine. Examples of poor solvents (anti-solvents) include, but are not limited to, water, toluene, acetonitrile, cyclohexane, isopropanol, tetrahydrofuran, n-butanol, xylenes, ethyl acetate and n-heptane.

[2] = Solubility of olaparib at room temperature; type: physicochemical; details: for solubility: organic solvent or mixture
Protocol: as §1

Q: With O=C(c1cc(Cc2n[nH]c(=O)c3ccccc23)ccc1F)N1CCN(C(=O)C2CC2)CC1 [olaparib, 4-[(3-[(4-cyclopropylcarbonyl)piperazin-4-yl]carbonyl)-4-fluorophenyl]methyl(2H)phthalazin-1-one] as the compound, how does the Solubility of olaparib ([1]; ACN) read?
A: The Solubility of olaparib was under 2.1 wt %.

Q: What about the Solubility of olaparib ([1]; DMAc) of the same compound?
A: The Solubility of olaparib was over 23.5 wt %.

Q: And the “Solubility of olaparib (Summary, solvents for olaparib)” value ([1]; DMAc, Pyridine)?
A: The value was >15% (w/w).

Q: What about the Solubility of olaparib ([1]; EA) of the same compound?
A: Its Solubility of olaparib is under 1.8 wt %.

Q: And the Solubility of olaparib ([1]; EtOH)?
A: Its Solubility of olaparib is 2.6-2.9 wt %.

Q: What about the “Solubility of olaparib (Summary, solvents for olaparib)” value ([1]; EtOH, MeOH) of the same compound?
A: Its value is 2.5-10% (w/w).

Q: And the Solubility of olaparib ([1]; IPA)?
A: Its Solubility of olaparib is under 2.1 wt %.

Q: And the Solubility of olaparib ([1]; MeOH)?
A: Its Solubility of olaparib is 6.7-8.8 wt %.

Q: And the Solubility of olaparib ([1]; Pyridine)?
A: Its Solubility of olaparib is over 21.5 wt %.

Q: And the Solubility of olaparib ([1]; THF)?
A: The Solubility of olaparib was under 1.9 wt %.

Q: And the Solubility of olaparib ([1]; Toluene)?
A: Its Solubility of olaparib is under 1.9 wt %.

Q: And the “Solubility of olaparib (Summary, anti-solvents for olaparib)” value ([1]; Toluene, ACN, Cyclohexane, IPA, THF, EA, Xylenes, n-heptane, Water, n-butanol)?
A: The value was <2.5% (w/w).

Q: And the Solubility of olaparib ([1]; Xylenes)?
A: The Solubility of olaparib was under 1.9 wt %.

Q: What about the solubility ([1]; acetonitrile (ACN), organic solvent or mixture, ACN) of the same compound?
A: The solubility was under 16.2 mg/mL.

Q: And the Solubility of olaparib ([1]; cyclohexane)?
A: The Solubility of olaparib was under 2.1 wt %.

Q: What about the solubility ([1]; dimethylacetamide (DMAc), organic solvent or mixture, DMAc) of the same compound?
A: The solubility was over 220 mg/mL.

Q: What about the solubility ([1]; ethanol (EtOH), organic solvent or mixture, EtOH) of the same compound?
A: Its solubility is 21 to 23 mg/mL (≈ 48.3 to 52.9 mM).

Q: And the solubility ([1]; ethyl acetate (EA), organic solvent or mixture, EA)?
A: The solubility was under 16.2 mg/mL.

Q: What about the solubility ([1]; isopropanol (IPA), organic solvent or mixture, IPA) of the same compound?
A: Its solubility is under 16.2 mg/mL.

Q: And the solubility ([1]; methanol (MeOH), organic solvent or mixture, MeOH)?
A: Its solubility is 53 to 70 mg/mL (≈ 122 to 161 mM).

Q: What about the Solubility of olaparib ([1]; n-butanol) of the same compound?
A: The Solubility of olaparib was under 2.1 wt %.

Q: What about the Solubility of olaparib ([1]; n-heptane) of the same compound?
A: Its Solubility of olaparib is under 2.4 wt %.

Q: And the solubility ([1]; organic solvent or mixture, Pyridine)?
A: The solubility was over 210 mg/mL.

Q: And the solubility ([1]; organic solvent or mixture, Toluene)?
A: Its solubility is under 16.9 mg/mL.

Q: And the solubility ([1]; organic solvent or mixture, Xylenes)?
A: Its solubility is under 16.2 mg/mL.

Q: And the solubility ([1]; organic solvent or mixture, cyclohexane)?
A: Its solubility is under 16.2 mg/mL.

Q: And the solubility ([1]; organic solvent or mixture, n-butanol)?
A: Its solubility is under 16.9 mg/mL.

Q: What about the solubility ([1]; organic solvent or mixture, n-heptane) of the same compound?
A: The solubility was under 16.2 mg/mL.

Q: And the solubility ([1]; tetrahydrofuran (THF), organic solvent or mixture, THF)?
A: Its solubility is under 16.9 mg/mL.

Q: And the Solubility of olaparib ([1]; water)?
A: The Solubility of olaparib was under 1.6 wt %.

Q: And the solubility ([1]; water)?
A: Its solubility is under 16.2 mg/mL.

Q: What about the Solubility of olaparib ([2]; AcOH) of the same compound?
A: The Solubility of olaparib was over 20.0 wt %.

Q: And the “Solubility of olaparib (Summary, solvents for olaparib)” value ([2]; AcOH, DMSO)?
A: The value was >15% (w/w).

Q: And the Solubility of olaparib ([2]; DMSO)?
A: The Solubility of olaparib was over 19.1 wt %.

Q: And the solubility ([2]; acetic acid (AcOH), AcOH)?
A: Its solubility is over 210 mg/mL.

Q: What about the solubility ([2]; dimethyl sulfoxide (DMSO), DMSO) of the same compound?
A: The solubility was over 210 mg/mL.
